Results as given in paper PMC9154192 (PLoS Biology, 2022).
Values after ≈ are worked out from the molar mass of the structure shown. Values joined by “and” are separate entries in the source; they are usually repeats but may differ in a detail not shown here. Identical values can stand only once. Like-named read-outs stand apart in the source and are kept apart here.

What was measured:
[1] = format: cell-based; settings: positive control
[2] = system: M. tuberculosis H37Rv; experiment: microbe, parasite or virus in culture; format: cell-based, Mycobacterium tuberculosis; settings: for SI (CC50/MIC): ratio of CC50 for L929 fibroblasts to MIC for strain H37Rv
[3] = system: M. tuberculosis H37Ra; experiment: microbe, parasite or virus in culture; format: cell-based, Mycobacterium tuberculosis
[4] = system: L929 murine fibroblasts; experiment: in vitro; format: cell-based; settings: L929, MTT assay (Table S1)
Procedure: (§1) A549 human pulmonary epithelial cells (KCLB 10185), human embryonic kidney (HEK) 293 cells (KCLB 21573), human THP-1 leukemia cells (KCLB 40202), human neuroblastoma SH-SY5Y cells (KCLB 22266), Murine Raw 264.7 macrophages (KCLB 40071), and L929 murine fibroblasts (KCLB 10001) were purchased from the KCLB (Seoul, Korea). Cytotoxicity testing was performed using the MTT assay and the WST-1 cell viability assay as previously described.

[5] = system: Murine Raw 264.7 macrophages; experiment: in vitro; format: cell-based; settings: RAW, MTT assay (Table S1)
Procedure: as §1

[6] = in vitro; format: cell-based, murine; settings: mouse
Procedure: as §1

[7] = TA98, 1.0 μg/plate, presence of S9 mix
[8] = TA100, 2.0 μg/plate, presence of S9 mix
[9] = TA1535, 3.0 μg/plate, presence of S9 mix
[10] = TA1537, 3.0 μg/plate, presence of S9 mix
[11] = WP2uvrA (pKM101), 2.0 μg/plate, presence of S9 mix
[12] = TA98, 5.0 μg/plate, absence of S9 mix
[13] = TA1537, 80.0 μg/plate, absence of S9 mix
[14] = Mycobacterium tuberculosis, H37RV, read-out: MIC
[15] = Mycobacterium tuberculosis, H37RA

For Nc1ccc2cc3ccccc3cc2c1 [2-AA], the “Individual revertant colony counts” value [1, 7] was 402 colonies per plate and 414 colonies per plate, the Mean revertant colonies [1, 7] was 408 colonies per plate and the “Individual revertant colony counts” value [1, 8] was 555 colonies per plate and 578 colonies per plate. For the same molecule, the Mean revertant colonies [1, 8] was 567 colonies per plate, the “Individual revertant colony counts” value [1, 9] was 96 colonies per plate and 103 colonies per plate and the Mean revertant colonies [1, 9] was 100 colonies per plate. For the same molecule, the “Individual revertant colony counts” value [1, 10] was 193 colonies per plate and 184 colonies per plate, the Mean revertant colonies [1, 10] was 189 colonies per plate and the “Individual revertant colony counts” value [1, 11] was 409 colonies per plate and 430 colonies per plate. For the same molecule, the Mean revertant colonies [1, 11] was 420 colonies per plate.
With O=[N+]([O-])c1ccc2c(c1)Cc1ccccc1-2 [2-NF] the “Individual revertant colony counts” value [1, 12] was 705 colonies per plate and 649 colonies per plate and the Mean revertant colonies [1, 12] was 677 colonies per plate.
In the case of Nc1c2ccccc2nc2ccccc12 [9-AA], the “Individual revertant colony counts” value [1, 13] is reported as 539 colonies per plate and 571 colonies per plate and the Mean revertant colonies [1, 13] is reported as 555 colonies per plate.
Molecule COc1ccc(/C(=C\c2ccc(OCc3ccccc3)cc2)C(=O)O)cc1OC [DPGA2] has an MIC [2] of over 100 µg/mL, an MIC [3] of 100 µg/mL (≈ 256 µM) and a CC50 [4] of over 100 µg/mL. It also gave a CC50 [5] of over 100 µg/mL.
For COC(=O)c1cc2ccc(O)cc2c2cc(OC)c(OC)cc12 [DPGA4], the MIC [2, 14] was over 100 µg/mL, the “SI (CC50/MIC)” value [2] was under 0.3 and the MIC [3, 15] was over 100 µg/mL. It also gave a CC50 ([6]; L929, MTT assay (Table S1)) of 34.9 µg/mL (≈ 112 µM) and a CC50 ([6]; RAW, MTT assay (Table S1)) of 37.5 µg/mL (≈ 120 µM).
With COC(=O)c1cc2ccc(OCC(C)C)cc2c2cc(OC)c(OC)cc12 [DPGA5] the MIC [2, 14] was over 100 µg/mL, the “SI (CC50/MIC)” value [2] was under 0.4 and the MIC [3, 15] was over 100 µg/mL. The CC50 ([6]; L929, MTT assay (Table S1)) was 40.3 µg/mL (≈ 109 µM) and the CC50 ([6]; RAW, MTT assay (Table S1)) was over 100 µg/mL.
Molecule COC(=O)c1cc2ccc(OC3CCCCC3)cc2c2cc(OC)c(OC)cc12 [DPGA6] has an MIC [2, 14] of over 100 µg/mL, an MIC [3, 15] of over 100 µg/mL and a CC50 ([6]; L929, MTT assay (Table S1)) of over 100 µg/mL. The CC50 ([6]; RAW, MTT assay (Table S1)) was over 100 µg/mL.
For CCOc1ccc2cc(C(=O)OC)c3cc(OC)c(OC)cc3c2c1 [DPGA7], the MIC [2, 14] was over 100 µg/mL, the MIC [3, 15] was over 100 µg/mL and the CC50 ([6]; L929, MTT assay (Table S1)) was over 100 µg/mL. It also gave a CC50 ([6]; RAW, MTT assay (Table S1)) of over 100 µg/mL.
